How the values were obtained:
[1] = biological target: T1, wildtype EcDXPS (Escherichia coli, UniProt P77488); assay: IC50 determination for 8 on wildtype EcDXPS (DXPS-IspC coupled assay); type: biochemical
T1 construct: made in house
Procedure: EcDXPS and IspC were preincubated with inhibitor for 10 min at 25 °C in assay reaction buffer (100 mM HEPES pH 8, 2 mM MgCl2, 5 mM NaCl, 1 mM ThDP, and 200 μM NADPH). Enzyme concentrations for variants were as follows: 200 nM DXPS (wildtype EcDXPS) and 4 μM IspC; 400 nM DXPS (R99A and R478A EcDXPS) and 6 μM IspC. The reaction was initiated by the addition of substrates at final concentrations of 2 × Km pyruvate and 10 × KmD-GAP. NADPH consumption was monitored at 340 nm for 10 min at 25 °C. The initial rate of NADPH consumption was used to determine the initial rate of DXP formation catalyzed by DXPS. Experiments were performed in triplicate and error bars represented standard error.

[2] = test system: porcine pyruvate dehydrogenase (PDH) E1 subunit; assay: Inhibition of porcine pyruvate dehydrogenase (PDH); type: biochemical
Source text: As noted, DXPS has a large active site and follows a mechanism requiring ternary complex formation, distinct from other ThDP-dependent pyruvate decarboxylases. We hypothesized that the sterically demanding scaffold of 8, predicted to engage both substrate binding sites, should display selectivity for DXPS. In a preliminary assessment, we tested 8 as an inhibitor of porcine pyruvate dehydrogenase (PDH) E1 subunit. […] For comparison, the selectivity ratio for 1 was estimated to be >15,000-fold for DXPS over porcine PDH.
Figure S5. Evaluation of inhibitory activity of 8 against mammalian porcine pyruvate dehydrogenase (PDH). Porcine PDH (0.01 U/mL) and inhibitor (8 or MAP positive control) were preincubated for 10 minutes at 25 °C in enzyme buffer (2 mM MgCl2, 5 mM L-cysteine, 1 mM ThDP, 300 μM TCEP, 100 mM HEPES pH 8, 2.5 mM NAD +, and 100 μM coenzyme A). The reaction was initiated by addition of pyruvate (60 μM). The change in absorbance at 340 nm over time was measured and used to calculate the initial rate of NADH formation. The % activity of PDH in the presence of 8 or MAP was plotted using GraphPad Prism version 9. There is 21% inhibition of PDH activity observed in the presence of compound 8 at a concentration of 1 mM.
Experiments were performed in triplicate. Error bars represent standard error.
Figure S6. Replicate progress curves for DXP formation in the presence or absence of inhibitors 8 or 10 with EcDXPS. A) Progress curves for formation of DXP in the presence of 8 display time-dependence of inhibition. B) Progress curves for formation of DXP in the presence of descarboxyl […]

[3] = biological target: T2, R478A EcDXPS (Escherichia coli, UniProt P77488, R478A); assay: Circular dichroism titration (PLThDP formation, apparent KD) on R478A EcDXPS; type: binding
T2 construct: made in house
Procedure: CD titrations of 8 and 10 onto WT, R99A, and R478A EcDXPS variants were conducted at 25 °C under aerobic conditions in 1.5 mL solutions containing 30 μM EcDXPS in 50 mM HEPES pH 8, 100 mM NaCl, 1 mM MgCl2, and 0.2 mM ThDP. Scans were obtained from 280 to 400 nm with a 0.5 s averaging time and 1 nm step following a titration of inhibitor (8: 0.25–30 μM on WT, 0.5–30 μM on R99A and R478A; 10 2.5–30 μM on WT, R99A, and R478A), with a 5 min preincubation of inhibitor with DXPS prior to scanning. […] The CD signals at 294 nm determined from the difference spectra obtained by subtracting the signal of E-ThDP at 294 nm were plotted as a function of [inhibitor] and fit to (1) the quadratic equation described in eq 2 (8 on WT DXPS), where E is the concentration of DXPS taking into account stoichiometric binding and CDmax is the maximal CD signal, or (2) a one-site specific binding curve (all other experiments) using GraphPad Prism Version 9 to calculate an apparent KD. Experiments were conducted in triplicate and the standard error was calculated. [drawing 2] 2
At the conclusion of the titration described above, the CD signal at 313 nm (previously characterized for LThDP) was recorded. Pyruvate (1 mM) was then added to the mixture, and a CD scan of the resulting solution was conducted as described above, to detect shifts in the CD spectrum that may correlate to LThDP formation. Experiments were conducted in triplicate.

[4] = biological target: T3, EcDXPS (Escherichia coli, UniProt P77488); assay: DXPS quaternary structure by native PAGE and analytical gel filtration
T3 construct: made in house
Procedure: EcDXPS (20 μM) in buffer (2 mM MgCl2, 5 mM NaCl, 1 mM ThDP, 100 mM HEPES pH 8) was preincubated with 8 ([…]) or no inhibitor for 30 min at 25 °C. Samples were then diluted 2-fold with 2× loading dye (100 mM Tris HCl pH 8, 20% glycerol, 200 mM dithiothreitol (DTT), 0.01% bromophenol blue). Samples (15 μL) were then loaded on a 7.5% PAGE gel. Gel electrophoresis was conducted at 4 °C for 30 min at 120 V, followed by 3 h at 150 V. Protein bands were stained with Protostain Blue. Experiments were performed in triplicate.
Analytical gel filtration was performed on an AKTA-GO FPLC system held at 4 °C fitted with a Cytiva Superdex 200 Increase 5/150 GL column. A 200 μL solution containing 29 μM EcDXPS in 25 mM HEPES, pH 8, 100 mM NaCl, 1 mM MgCl2, 1% glycerol, 10 μM ThDP, and 29 μM 8 or no inhibitor was centrifuged at 13,000 rpm for 10 min to remove particulates. The resulting supernatant was loaded into a 10 μL loop attached to the FPLC via gastight syringes. […] DXPS was analyzed by isocratic elution from the column at a flow of 0.15 mL/min with 1.5 column volumes (4.5 mL). The dimer/tetramer ratio was calculated from the peak area (mL mAu) of the dimer (1.7 mL retention) peak divided by the peak area (mL mAu) of the tetramer (1.4 mL retention) peak. […]

CC(=O)P(=O)(O)OCCc1cn(C(Cc2ccccc2)(Cc2ccccc2)C(=O)O)nn1 [Compound 8]
IC50 [1]: ≤ 0.072 µM
concentration required for 21% inhibition of DXPS ([1]; 2 × Km pyruvate): less than 15.6 nM
estimated selectivity ratio for DXPS over porcine PDH ([2]; DXPS over porcine PDH): > 64,000 fold
inhibition of PDH ([2]; at a concentration of 1 mM, 60 μM pyruvate, 10 min preincubation): 21%
Kd [3]: 11 ± 4 µM
change in PLThDP CD signal upon addition of pyruvate ([3]; R478A-PLThDP complex): shift in the CD profile toward the characteristic LThDP signal
effect on dimer/tetramer ratio (analytical gel filtration) ([4]; 29 μM EcDXPS, 29 μM 8): small but statistically significant decrease in the dimer/tetramer ratio
effect on EcDXPS oligomeric state (native PAGE) ([4]; EcDXPS 20 μM, incubation with 8): induce the formation of higher-order enzyme oligomers
